Reference: ChEMBL document CHEMBL1134920, “1,3,4-Trisubstituted pyrrolidine CCR5 receptor antagonists. Part 4: synthesis of N-1 acidic functionality affording analogues with enhanced antiviral activity against HIV” (Bioorg Med Chem Lett, 2002)

How the values were obtained:
[1] = test system: Human immunodeficiency virus 1; test: In vitro inhibition of HIV-1 BAL strain infection of HeLa cell line.; type: functional; conditions: Human immunodeficiency virus 1, HeLa
[2] = target: C-C chemokine receptor type 5 (Homo sapiens, UniProt P51681); test: In vitro binding affinity at CCR5 receptor in the presence of [125I]-MIP-1 alpha.
[3] = Half-life in rat; type: ADME, organism-based; conditions: in vivo
[4] = target: Voltage-gated L-type calcium channel (Homo sapiens, UniProt Q13936+Q13698+Q01668+O60840); test: Inhibition of L-type Ca+2 channels; type: protein assay
[5] = Bioavailability in rat; type: ADME, organism-based; conditions: in vivo
[6] = Bioavailability in dog; type: ADME, organism-based, Canis lupus familiaris; conditions: in vivo
[7] = Half-life in rhesus monkey; type: ADME; conditions: cercopithecidae, in vivo
[8] = Half-life in dog; type: ADME, organism-based, Canis lupus familiaris; conditions: in vivo
[9] = Volume of distribution in steady state was determined in dog; type: ADME, organism-based, Canis lupus familiaris; conditions: in vivo, read-out: Vdss
[10] = Bioavailability in Rhesus monkey; type: ADME, organism-based, Macaca mulatta; conditions: in vivo
[11] = Volume of distribution in steady state was determined in rhesus monkey; type: ADME, organism-based; conditions: cercopithecidae, in vivo; read-out: Vdss
[12] = Plasma clearance in rhesus monkey; type: ADME, organism-based; conditions: cercopithecidae, read-out: Clp
[13] = Plasma clearance in dog; type: ADME, organism-based, Canis lupus familiaris; conditions: read-out: Clp
[14] = Plasma clearance in rat; type: ADME, organism-based; conditions: read-out: Clp
[15] = Volume of distribution in steady state was determined in rat; type: ADME, organism-based; conditions: in vivo, read-out: Vdss
[16] = Inhibitory concentration was determined against peripheral blood mononuclear cells (PBMC); type: functional
Macaca mulatta = organism: Macaca mulatta; test: Plasma clearance in rhesus monkey; conditions: read-out: Clp

C-C chemokine receptor type 5, sequence (P51681 whole entry): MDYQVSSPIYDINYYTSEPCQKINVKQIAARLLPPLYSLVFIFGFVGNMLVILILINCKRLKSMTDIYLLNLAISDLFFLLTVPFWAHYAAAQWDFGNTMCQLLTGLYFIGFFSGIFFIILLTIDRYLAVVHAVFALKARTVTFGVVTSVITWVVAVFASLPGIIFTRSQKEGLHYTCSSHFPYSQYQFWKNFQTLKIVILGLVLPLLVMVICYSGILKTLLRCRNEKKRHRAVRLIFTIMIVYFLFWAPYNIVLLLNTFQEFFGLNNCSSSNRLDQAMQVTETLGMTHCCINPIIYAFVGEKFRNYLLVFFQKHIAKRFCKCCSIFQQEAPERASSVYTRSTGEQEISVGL

C[C@H](C(=O)O)N1C[C@H](CN2CCC(O)(CCCc3ccccc3)CC2)[C@@H](c2ccccc2)C1
IC90 [1]: 333 nM
IC50 [2]: 3 nM

OC1(CCCc2ccc(-c3nnn[nH]3)cc2)CCN(C[C@H]2CN(CC3CCCCC3)C[C@@H]2c2ccccc2)CC1
IC90 [1]: 4 nM
half-life [3]: 0.3 h
IC50 [4]: > 10000 nM
bioavailability [5]: 0%

O=C(O)[C@H](C1CCCCC1)N1C[C@H](CN2CCC(O)(CCCc3ccccc3)CC2)[C@@H](c2ccccc2)C1
IC90 [1]: > 300 nM
IC50 [2]: 5 nM

O=C(O)[C@@H](C1CCC1)N1C[C@H](CN2CCC(CCCc3ccccc3)CC2)[C@@H](c2ccccc2)C1
IC90 [1]: 11 nM
IC50 [2]: 0.1 nM

O=C(O)[C@@H](C1CCCCC1)N1C[C@H](CN2CCC(CCCc3ccccc3)CC2)[C@@H](c2ccccc2)C1
bioavailability [6]: 43%
IC90 [1]: 11 nM
half-life [7]: 6.3 h
half-life [8]: 9.2 h
Vd [9]: 3.1 L/kg
bioavailability [10]: 10%
Vd [11]: 6.2 L/kg
clearance [12]: 17.1 mL/min/kg
half-life [3]: 2.1 h
IC50 [4]: 5300 nM
bioavailability [5]: 26%
clearance [13]: 10.9 mL/min/kg
IC50 [2]: 0.1 nM
clearance [14]: 17.6 mL/min/kg
Vd [15]: 3.3 L/kg
IC95 [16]: 77 nM

CC(C)[C@H](C(=O)O)N1C[C@H](CN2CCC(CCCc3ccccc3)CC2)[C@@H](c2ccccc2)C1
IC90 [1]: 111 nM
IC50 [2]: 0.7 nM

O=C(OCc1ccccc1)[C@@H](C1CCCCC1)N1C[C@H](CN2CCC(O)(CCCc3ccccc3)CC2)[C@@H](c2ccccc2)C1
IC90 [1]: > 300 nM
IC50 [2]: 3.6 nM

O=C(OCc1ccccc1)[C@H](C1CCCCC1)N1C[C@H](CN2CCC(O)(CCCc3ccccc3)CC2)[C@@H](c2ccccc2)C1
IC90 [1]: > 300 nM
IC50 [2]: 24 nM

O=C(O)[C@@H](C1CC1)N1C[C@H](CN2CCC(CCCc3ccccc3)CC2)[C@@H](c2ccccc2)C1
IC90 [1]: 300 nM
IC50 [2]: 3 nM

CC(C)[C@H](C(=O)O)N1C[C@H](CN2CCC(O)(CCCc3ccccc3)CC2)[C@@H](c2ccccc2)C1
IC90 [1]: 333 nM
IC50 [2]: 2 nM

OC[C@@H](C1CCCCC1)N1C[C@H](CN2CCC(O)(CCCc3ccccc3)CC2)[C@@H](c2ccccc2)C1
IC90 [1]: 300 nM
IC50 [2]: 1 nM

O=C(O)CN1C[C@H](CN2CCC(O)(CCCc3ccccc3)CC2)[C@@H](c2ccccc2)C1
IC90 [1]: 3000 nM
IC50 [2]: 6 nM

O=C(O)[C@@H](CC1CCC1)N1C[C@H](CN2CCC(CCCc3ccccc3)CC2)[C@@H](c2ccccc2)C1
IC90 [1]: 1.2 nM
half-life [3]: 3 h
IC50 [4]: 2700 nM
bioavailability [5]: 29%
IC50 [2]: 0.1 nM
clearance [14]: 26.5 mL/min/kg
Vd [15]: 5.9 L/kg
IC95 [16]: < 8 nM

O=C(O)[C@@H](C1CCCCC1)N1C[C@H](CN2CCC(c3ccc(F)cc3)CC2)[C@@H](c2ccccc2)C1
IC90 [1]: 0.4 nM
IC50 [2]: 4 nM

O=C(O)[C@@H](C1CCCCC1)N1C[C@H](CN2CCC(O)(CCCc3ccccc3)CC2)[C@@H](c2ccccc2)C1
IC90 [1]: 11 nM
half-life [3]: 1.8 h
bioavailability [5]: 0%
IC50 [2]: 0.5 nM
clearance [14]: 128 mL/min/kg
Vd [15]: 15 L/kg
IC95 [16]: 187 nM

CC(C)[C@H](C(=O)O)N1C[C@H](CN2CCC(c3ccc(F)cc3)CC2)[C@@H](c2ccccc2)C1
bioavailability [6]: 34%
IC90 [1]: > 100 nM
clearance (Macaca mulatta): 14.6 mL/min/kg
half-life [7]: 7.8 h
half-life [8]: 6.4 h
Vd [9]: 8.6 L/kg
bioavailability [10]: 84%
Vd [11]: 4.2 L/kg
half-life [3]: 1.9 h
IC50 [4]: > 10000 nM
bioavailability [5]: 50%
clearance [13]: 13.1 mL/min/kg
IC50 [2]: 36 nM
clearance [14]: 68.3 mL/min/kg
Vd [15]: 8.4 L/kg
IC95 [16]: > 3000 nM

O=C(O)[C@@H](CC1CC1)N1C[C@H](CN2CCC(CCCc3ccccc3)CC2)[C@@H](c2ccccc2)C1
IC90 [1]: 11 nM
IC50 [2]: 0.1 nM

OC[C@H](C1CCCCC1)N1C[C@H](CN2CCC(O)(CCCc3ccccc3)CC2)[C@@H](c2ccccc2)C1
IC50 [2]: 1 nM

COC(=O)[C@@H](C1CCCCC1)N1C[C@H](CN2CCC(O)(CCCc3ccccc3)CC2)[C@@H](c2ccccc2)C1
IC50 [2]: 1 nM

COC(=O)[C@H](C1CCCCC1)N1C[C@H](CN2CCC(O)(CCCc3ccccc3)CC2)[C@@H](c2ccccc2)C1
IC50 [2]: 4 nM

O=C(O)[C@@H](C1CCCC1)N1C[C@H](CN2CCC(CCCc3ccccc3)CC2)[C@@H](c2ccccc2)C1
IC90 [1]: 11 nM
IC50 [2]: 0.2 nM

O=C(O)[C@@H](c1ccccc1)N1C[C@H](CN2CCC(O)(CCCc3ccccc3)CC2)[C@@H](c2ccccc2)C1
IC90 [1]: 33 nM
IC50 [2]: 0.8 nM
